Here are results for 3 compounds from US20140256687A1, “Agricultural and Horticultural Insecticide Composition and Method for Using the Same” (priority 2011, published 2014).

One experiment concerns Chilo suppressalis. Kind of experiment: Control effect on Chilo suppressalis (potted rice spray test). As to conditions: spray 400 L/ha, g a.i./ha: flubendiamide 30, dichlorvos 393, profenofos 500; for Percentage of control (%): control effect by formula 2; for Percentage of control (%) / Percentage of damaged stems (%): 29 days after treatment; for Number of stems at 29 days after treatment, Damaged stems / Number of stems at 29 days after treatment, Normal stems: rice (Kinmaze) in pots, 60 larvae per pot. Type of experiment: in vivo. The protocol: Rice plants (variety: Kinmaze) were planted in 2-L pots and grown to a height of about 80 cm (about 82 days after transplantation, 18 to 25 sheaths). The depth of paddy water in each pot was adjusted to 4 cm and then spray treatment to the rice plants was conducted with an agrochemical solution diluted to a predetermined concentration in an amount equivalent to 400 L/ha. After the spray-treated plants were air-dried, each pot was covered with a vinyl chloride cylindrical cover 30 cm in height. At 1 day before the treatment and at 5 and 12 days after the treatment, 20 larvae of the test insect pest Chilo suppressalis were released into each of the covered pots (60 larvae in total per pot). At 29 days after the treatment, in each pot, the number of damaged stems of the rice plants was counted, the percentage of damaged stems was calculated, and from this percentage, the control effect was calculated according to formula 2. In addition, the expected value was calculated according to Colby's equation in the same manner as in Test Example 1.
Control effect (%)=100−(the percentage of damaged stems in a treatment plot/the percentage of damaged stems in a non-treatment plot)×100 <Formula 2>

The next experiment relates to Plutella xylostella. Kind of experiment: Control effect on Plutella xylostella (cabbage, greenhouse spray test). Type of experiment: in vivo. As to conditions: spray 800 L/ha, g a.i./ha: flubendiamide 60, dichlorvos 400, profenofos 320; for Number of surviving larvae 2 days after treatment / Number of surviving larvae 6 days after treatment: 3rd-instar larvae on Brassica oleracea var. capitata, three plants per plot; for Control effect (%) 2 days after treatment / Control effect (%) 6 days after treatment: formula 1.

Regarding `COP(=O)(OC)OC=C(Cl)Cl` [Dichlorvos, 2,2-dichlorovinyl dimethyl phosphate], in the experiment with Chilo suppressalis, the “Percentage of control (%)” value came out at 7.5%; the “Number of stems at 29 days after treatment, Damaged stems” value (“Number of stems … Damaged stems” below) worked out at 38; the “Number of stems at 29 days after treatment, Normal stems” value (shortened to “Number of stems … Normal stems”) is 7; the “Percentage of damaged stems (%)” value was found to be 84.4%. For the same compound, in the experiment on Plutella xylostella, the “Number of surviving larvae 2 days after treatment” value (“Number of surviving larvae 2 days” below) was 188, the “Number of surviving larvae 6 days after treatment” value (“Number of surviving larvae 6 days” for short) is given as 212, the “Control effect (%) 2 days after treatment” value (from here on “Control effect (%) 2 days”) is listed as 16% and the “Control effect (%) 6 days after treatment” value (from here on “Control effect (%) 6 days”) worked out at 0%.
As to `Cc1cc(C(F)(C(F)(F)F)C(F)(F)F)ccc1NC(=O)c1cccc(I)c1C(=O)NC(C)(C)CS(C)(=O)=O` [Flubendiamide, 3-iodo-W-(2-mesyl-1,1-dimethylethyl)-N-{4-[1,2,2,2-tetrafluoro-1-(trifluoromethyl)ethyl]-o-tolyl}phthalamide], in the experiment on Chilo suppressalis, the “Percentage of control (%)” value amounted to 54.0%; the “Number of stems … Damaged stems” value is recorded as 21; the “Number of stems … Normal stems” value stood at 29; the “Percentage of damaged stems (%)” value was determined as 42.0%. In the experiment with Plutella xylostella, the “Number of surviving larvae 2 days” value was determined as 307, the “Number of surviving larvae 6 days” value is reported as 56, the “Control effect (%) 2 days” value worked out at 39% and the “Control effect (%) 6 days” value was 88%.
As to `CCCSP(=O)(OCC)Oc1ccc(Br)cc1Cl` (stereo not drawn) [Profenofos, O-4-bromo-2-chlorophenyl O-ethyl S-propyl phosphorothioate], in the experiment with Chilo suppressalis, the “Percentage of control (%)” value stood at 27.7%; the “Number of stems … Damaged stems” value turned out to be 35; the “Number of stems … Normal stems” value stood at 18; the “Percentage of damaged stems (%)” value is listed as 66.0%. Moreover, in the experiment on Plutella xylostella, the “Number of surviving larvae 2 days” value was 121, the “Number of surviving larvae 6 days” value came to 44, the “Control effect (%) 2 days” value turned out to be 48% and the “Control effect (%) 6 days” value is given as 80%.
